# Measurements as given in patent US7282507B2, “Indole derivatives as selective androgen receptor modulators (SARMS)” (Janssen Pharmaceutica N.V., priority 2004, dated 2007).
# Legend:
# [1] = biological target: T1, androgen receptor LBD (Panvera) (Rattus norvegicus, UniProt P15207); assay: Androgen Receptor Filtration Binding Assay (PANVERA); settings: [3H] R1881 tracer 0.5 nM; read-out: IC50 (nM), Androgen Receptor Binding (Panvera)
# T1 construct: 5 pmol androgen receptor LBD (Panvera); purchased Panvera
# T1 sequence (P15207 651-882 limits assumed): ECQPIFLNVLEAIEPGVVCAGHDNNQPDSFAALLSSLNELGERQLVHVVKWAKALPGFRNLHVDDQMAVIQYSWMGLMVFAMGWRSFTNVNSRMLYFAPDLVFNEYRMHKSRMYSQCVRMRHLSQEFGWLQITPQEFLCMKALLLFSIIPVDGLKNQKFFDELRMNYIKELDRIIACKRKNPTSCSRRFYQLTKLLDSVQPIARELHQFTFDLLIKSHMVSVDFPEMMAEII
# Procedure: The assay was run on a 96 well plate with each well filled with a total reaction volume 150 μL, of a solution containing 5 pmol androgen receptor LBD (Panvera) or 30 μL of freshly prepared rat cytosol, 0.5 nM [^3H] […] (TED buffer contains 10 mM Tris.HCl pH 7.4, 1 mM sodium molybdate, 1.5 mM EDTA, 1 mM DTT and 10% (v/v) glycerol.)
# On day one, the solution containing receptor, tracer and TED buffer was distributed into a 96 well plate. Diluted test compound or control vehicle was then added to individual wells and the plate incubated at 4° C. overnight.
# On day two, to each well was then added 20 μL human γ-globulin (ICN 823102), prepared at 25 mg/ml in TE pH 8.0, and 55 μL 40% polyethylene glycol 8000 (J T Baker U222-08), prepared in TE pH 8.0. The plate was incubated at 4° C. for 60 minutes. During incubation, the harvester was rinsed with 10% PEG 8000, prepared in TE pH 8.0, and a GF/C Unifilter-96 was pre-wet with 10% PEG. The binding reaction was filtered, the retentate was washed three times with 10% PEG and dried under vacuum for a couple of minutes, then dried at 50° C. for 5 min and the plate was bottom sealed. Next, 25 μL of Microscint-20 (Packard) was added to the filter wells and the plate was top sealed. The plate wells were then counted on a TopCount (Packard).
# Counts per well were measured and IC50s determined by linear regression.
# [2] = biological target: T2, androgen receptor (rat ventral prostate cytosol) (Rattus norvegicus, UniProt P15207); assay: Androgen Receptor Binding Using Rat Ventral Prostate Cytosol; settings: Concentration 3000 nM
# T2 construct: from tissue; host or cells: ventral prostate cytosol of castrated male Sprague Dawley or Wistar rats
# T2 sequence (P15207 1-902): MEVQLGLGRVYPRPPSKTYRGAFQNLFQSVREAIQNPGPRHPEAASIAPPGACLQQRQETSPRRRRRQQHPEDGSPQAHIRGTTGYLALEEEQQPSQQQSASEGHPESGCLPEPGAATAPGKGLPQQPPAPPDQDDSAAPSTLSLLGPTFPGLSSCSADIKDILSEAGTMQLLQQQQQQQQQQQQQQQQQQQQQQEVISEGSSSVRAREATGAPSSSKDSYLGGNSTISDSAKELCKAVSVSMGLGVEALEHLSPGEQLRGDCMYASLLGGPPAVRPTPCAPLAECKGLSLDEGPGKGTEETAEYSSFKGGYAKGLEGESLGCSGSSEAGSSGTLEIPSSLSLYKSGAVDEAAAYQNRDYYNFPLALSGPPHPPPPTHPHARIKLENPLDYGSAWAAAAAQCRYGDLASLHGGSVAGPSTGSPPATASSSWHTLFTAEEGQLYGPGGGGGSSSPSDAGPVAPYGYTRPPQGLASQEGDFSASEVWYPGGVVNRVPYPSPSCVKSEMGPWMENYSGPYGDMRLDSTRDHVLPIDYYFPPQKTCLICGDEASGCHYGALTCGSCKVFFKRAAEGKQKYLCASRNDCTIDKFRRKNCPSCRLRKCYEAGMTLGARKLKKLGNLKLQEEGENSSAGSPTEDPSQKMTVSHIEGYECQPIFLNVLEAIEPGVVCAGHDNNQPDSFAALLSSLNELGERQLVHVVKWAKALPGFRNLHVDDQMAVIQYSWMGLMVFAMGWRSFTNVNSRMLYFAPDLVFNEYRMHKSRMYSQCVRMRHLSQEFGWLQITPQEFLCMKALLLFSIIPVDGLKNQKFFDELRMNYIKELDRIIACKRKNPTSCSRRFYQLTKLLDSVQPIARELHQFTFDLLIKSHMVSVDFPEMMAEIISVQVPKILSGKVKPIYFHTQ
# Method in brief: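 Cytosol from castrated rat ventral prostate was incubated overnight at 4°C with 0.5 nM [3H] tracer and compound in TED buffer (10 mM Tris-HCl pH 7.4, molybdate, EDTA, DTT, glycerol).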
# [3] = biological target: T3, androgen receptor (AdEasy+rAR, COS-7 cells) (Rattus norvegicus, UniProt P15207); assay: COS-7 Whole-Cell Androgen Receptor Binding Assay, Adenovirus Transduction; settings: for IC50: read-out: IC50 (nM), COS Binding
# T3 construct: expressed in transfected cells; host or cells: COS-7 cells transduced with adenovirus AdEasy+rAR
# T3 sequence (P15207 1-902): T2 sequence (P15207 1-902)
# Procedure: COS-7 cells were plated in 96-well plates at 20,000 cells per well, in a solution of DMEM/F12 (GIBCO) containing 10% (v/v) charcoal-treated fetal bovine serum (Hyclone) and lacking phenol red. The cells were then incubated overnight at 37° C. in 5% (v/v) humidified CO2.
# Test compound solutions were prepared by diluting the test compound in 100% (v/v) DMSO, if necessary.
# Next, 1 mL of DMEM/F12 lacking phenol red was pipetted into each of the wells of a 2-mL 96-well assay block. […] The wells were carefully mixed by pipette.
# In a 15 mL or 50 mL sterile centrifuge tube, a dilution in DMEM/F12 of the adenovirus AdEasy+rAR at a moi of 1:50 per well was prepared.
# The medium was removed from the 96-well plates by inversion and the plates dried very briefly, inverted, on a sterile towel. As soon as possible after medium removal, 40 μL of the diluted test compound was added to each well, in duplicate. […] The plates were then incubated for 48 hours at 37° C. in 5% (v/v) humidified CO2.
# The medium was removed from the above incubated plates by inversion and dried. Each well was then washed with 0.35 mL of 1× PBS. The PBS was then removed from the plates by inversion and the plates dried.
# To each well was then added 50 μL of 0.5% (v/v) Triton X-100 (Sigma) in 1× PBS and the plates placed on a rotary shaker for 5 min. The contents of each well were then transferred to an OptiPlate-96 (Packard) scintillation plate. To each well was then added 0.2 mL of Microscint-20 (Packard) and the wells counted on a TopCount (Packard).
# Percent inhibition was determined by testing dilutions of the test compound (usually duplicates of 10 μM) in the binding assay. Counts per well were measured and percents of inhibition determined. […] Counts per well were measured and IC50s determined by linear regression.
# [4] = test system: testosterone-enhanced ventral prostate and seminal vesicle weights; assay: Ventral Prostate and Seminal Vesicle Weight in vivo Assay; set-up: species or system rat; settings: immature castrated male Sprague Dawley rats, once daily for five days, usually orally 40 mg/kg, with testosterone propionate 2 mg/kg s.c. Note: key: 'active' if the non weight adjusted prostate weight was ≦40 mg or the % Inhibition prostate weight, body weight adjusted was ≧40% @ 2 mg/day dosage; ID50's, if determined, of ≦15 mg/day also indicated an 'active' compound; listed herein as 'inactive' as they did not meet the specified criteria defined above.
# Method in brief: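 Immature castrated male Sprague Dawley rats (~50 g) were dosed once daily for five days with compound, usually orally at 40 mg/kg in cyclodextrin or methylcellulose vehicle. Testosterone propionate was co-dosed subcutaneously at 2 mg/kg. On day six, ventral prostate and seminal vesicle wet weights were measured; activity was judged on prostate weight or body-weight-adjusted % inhibition.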
# [5] = biological target: T4, androgen receptor (AdEasy+rAR, L929 cells) (Rattus norvegicus, UniProt P15207); assay: L929 Androgen Receptor Functional Assay, Adenovirus Transduction; type: cell-based; settings: for inhibition at 3 µM: L929, antagonist testing with R1881, 3000 nM; for % Activity, L929 androgen receptor functional assay / EC50: agonist testing; for IC50: antagonist testing with R1881
# T4 construct: expressed in transfected cells; host or cells: L929 cells transduced with adenovirus AdEasy+rAR
# T4 sequence (P15207 1-902): T2 sequence (P15207 1-902)
# Method in brief: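 L929 cells in phenol red-free, charcoal-stripped serum medium transduced with AdEasy+rAR (moi 1:500) and exposed 48 h at 37 °C to compound alone (agonist mode) or with R1881 (antagonist mode; 2.5 nM as the 2.5× dilution).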
Structure (SMILES),inhibition at 3 µM ([3]; concentration of 3000 nM),IC50 [3],active / inactive: inhibition of testosterone-enhanced prostate weight [4],inhibition at 3 µM [5],"% Activity, L929 androgen receptor functional assay ([5]; 3000 nM)",further results
CC(O)(SC1CCCCC1)c1cc2cc([N+](=O)[O-])c(C(F)(F)F)cc2[nH]1 (racemic) [Compound 256],,,,,,IC50 [1]: 2650 nM
CC(O)(SC1CCCCC1)c1cc2cc(C#N)c(C(F)(F)F)cc2[nH]1 (racemic) [Compound 257],,,,,,IC50 [1]: 5150 nM
CC(O)(Sc1ccc(Cl)cc1)c1cc2cc([N+](=O)[O-])c(C(F)(F)F)cc2[nH]1 (racemic) [Compound 259],,,,,,IC50 [1]: 915 nM
CCSCC(C)(O)c1cc2cc(Cl)c(C(F)(F)F)cc2[nH]1 (stereo not shown) [Compound 152],39%,108 nM,inactive,,,inhibition at 3 µM [2]: 97%
CCC(O)(CS(=O)(=O)CC(F)(F)F)c1cc2cc([N+](=O)[O-])c(C(F)(F)F)cc2[nH]1 (stereo not shown) [Compound 191],65%,840 nM,active,-6%,2%,
CCC(O)(CSCC(F)(F)F)c1cc2cc(Cl)c(C(F)(F)F)cc2[nH]1 (stereo not shown) [Compound 192],86%,82 nM,active,89%,8%,
CCC(O)(CSCC(F)(F)F)c1cc2cc(F)c(C(F)(F)F)cc2[nH]1 (stereo not shown) [Compound 194],80%,320 nM,inactive,40%,2%,
CC(O)(CSCc1cccs1)c1cc2cc([N+](=O)[O-])c(C(F)(F)F)cc2[nH]1 (stereo not shown) [Compound 197],86%,> 3000 nM,inactive,-26%,2%,
CCC(O)(CS(=O)(=O)CC(F)(F)F)c1[nH]c2cc(C(F)(F)F)c([N+](=O)[O-])cc2c1Cl (stereo not shown) [Compound 199],82%,310 nM,inactive,59%,2%,
CCCCSCC(C)(O)c1cc2cc([N+](=O)[O-])c(C(F)(F)F)cc2[nH]1 (stereo not shown) [Compound 200],97%,,inactive,96%,1%,
CC(O)(CSCC(F)(F)F)c1cc2cc([N+](=O)[O-])c(C(F)(F)F)cc2[nH]1 (stereo not shown) [Compound 201],,340 nM,inactive,,,"% Activity, L929 androgen receptor functional assay ([5]; 3000 nM, 3 µM): 2%; % Inhibition, L929 androgen receptor functional assay ([5]; antagonist testing with R1881, 3000 nM, 3 µM): 83%; % Inhibition, COS Binding ([3]; concentration of 3000 nM, 3 µM): 86%"
CCSCC(C)(O)c1cc2cc(C#N)c(C(F)(F)F)cc2[nH]1 (stereo not shown) [Compound 209],61%,1840 nM,active,,,"EC50 [5]: > 8000 nM; % Activity, L929 androgen receptor functional assay ([5]; @ 8000 nM): −3 @ 8000 nM %; IC50 [5]: 372 nM"
CCSCC(C)(O)c1cc2cc([N+](=O)[O-])cc(C(F)(F)F)c2[nH]1 (stereo not shown) [Compound 212],86%,98 nM,active,101%,−3%,
CC(O)(CSCC(F)(F)F)c1[nH]c2cc(C(F)(F)F)c([N+](=O)[O-])cc2c1I (stereo not shown) [Compound 213],71%,> 600 nM,active,92%,,"EC50 [5]: > 8000 nM; % Activity, L929 androgen receptor functional assay ([5]; @ 8000 nM): −1 @ 8000 nM %; IC50 [5]: 372 nM"
CCSCC(C)(O)c1[nH]c2cc(C(F)(F)F)c(C#N)cc2c1C (stereo not shown) [Compound 219],,6.2 nM,inactive,103%,−3%,
CCSCC(C)(O)c1cc2cc(Br)c(C(F)(F)F)cc2[nH]1 (stereo not shown) [Compound 220],,34 nM,inactive,103%,−3%,
CCSCC(C)(OC)c1cc2cc(C#N)c(C(F)(F)F)cc2n1C (stereo not shown) [Compound 235],78%,520 nM,inactive,95%,3%,IC50 [5]: 1840 nM
CCSCC(C)(O)c1cc2cc(C#N)c(C(F)(F)F)cc2n1C (stereo not shown) [Compound 236],83%,105 nM,active,103%,2%,IC50 [5]: 821 nM
